In patent publication US20060258617A1, “DRUG DELIVERY TO THE BACK OF THE EYE” (Allergan, Inc., priority 2004, published 2006) one finds osmolality data, which are given here for one substance.

A short description of the data set: Osmolality of cyclodextrins as a function of concentration in pure water. The data set is classed as physicochemical. The conditions noted are these: ambient room temperature, various concentrations (FIG. 5). How it is done:
The osmolality of four cyclodextrins was determined as a function of concentration in pure water by the following procedure. Various amounts of cyclodextrins were dissolved in water at ambient room temperature.

On to “sulfobutylether-β-cyclodextrin [NaSBECD]”, for which the osmolality result was “significantly higher osmolality than the other β-cyclodextrins tested”.
